Calls of active or inactive are those of the source. The rule behind the calls is not given here.
Key:
[1] = target: T1, Cytoskeleton-associated protein 4 (Homo sapiens) (UniProt Q07065); assay: Binding affinity to CKAP4 cysteine residue in human 786-O cell soluble proteomic lysate at 5 uM incubated for 1 hr followed by cell lysis by IA-alkyne probe based isoTOP-ABPP analysis
T1 sequence (whole entry): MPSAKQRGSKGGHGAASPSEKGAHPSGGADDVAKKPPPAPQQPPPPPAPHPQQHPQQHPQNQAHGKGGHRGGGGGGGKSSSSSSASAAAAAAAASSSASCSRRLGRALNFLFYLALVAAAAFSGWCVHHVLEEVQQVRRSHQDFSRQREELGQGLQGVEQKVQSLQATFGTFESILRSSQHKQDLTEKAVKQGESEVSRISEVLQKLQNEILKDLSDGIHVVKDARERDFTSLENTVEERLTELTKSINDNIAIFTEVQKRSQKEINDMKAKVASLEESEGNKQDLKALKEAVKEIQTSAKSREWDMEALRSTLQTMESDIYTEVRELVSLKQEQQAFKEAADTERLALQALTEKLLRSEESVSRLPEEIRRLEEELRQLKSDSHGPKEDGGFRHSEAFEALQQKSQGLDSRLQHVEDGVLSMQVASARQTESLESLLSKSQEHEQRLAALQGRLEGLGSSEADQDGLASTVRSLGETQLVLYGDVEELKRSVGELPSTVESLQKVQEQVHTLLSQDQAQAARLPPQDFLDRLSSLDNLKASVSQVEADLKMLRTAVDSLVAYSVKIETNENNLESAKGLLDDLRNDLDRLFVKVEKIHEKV

[2] = target: T2, Nicotinamide N-methyltransferase (Homo sapiens, UniProt P40261); assay: Inhibition of NNMT in human 786-O cell lysate using d4-nicotinamide as substrate pretreated for 1 hr at 3 mins post 160 uM SAM addition followed by substrate addition measured after 15 to 30 mins by LC-MS analysis
T2 sequence (P40261 whole entry): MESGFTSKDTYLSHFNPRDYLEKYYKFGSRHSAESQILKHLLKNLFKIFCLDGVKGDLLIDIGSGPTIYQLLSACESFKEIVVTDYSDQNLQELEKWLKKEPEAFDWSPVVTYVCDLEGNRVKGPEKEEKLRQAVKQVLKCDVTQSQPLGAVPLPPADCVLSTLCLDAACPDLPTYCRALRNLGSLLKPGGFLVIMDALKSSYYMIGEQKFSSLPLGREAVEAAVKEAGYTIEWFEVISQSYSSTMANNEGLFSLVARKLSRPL

[3] = target: T3, Nicotinamide N-methyltransferase (Homo sapiens) (UniProt P40261); assay: Inhibition of SAH-rhodamine binding to NNMT in human 786-O cell soluble proteomic lysate preincubated for 1 hr followed by SAH-rhodamine addition measured after 5 mins by Gel-based ABPP analysis
T3 sequence (whole entry): T2 sequence (P40261 whole entry)

[4] = target: T3, Nicotinamide N-methyltransferase (Homo sapiens); assay: Inhibition of NNMT in human 786-O cell lysate using d4-nicotinamide as substrate preincubated for 1 hr followed by substrate and SAM addition measured after 15 to 30 mins by LC-MS analysis
[5] = target: Receptor expression-enhancing protein 5 (Homo sapiens) (UniProt Q00765); assay: Binding affinity to REEP5 cysteine residue in human 786-O cell soluble proteomic lysate at 5 uM incubated for 1 hr followed by cell lysis by IA-alkyne probe based isoTOP-ABPP analysis
[6] = target: T4, 5'-nucleotidase domain-containing protein 2 (Homo sapiens) (UniProt Q9H857); assay: Binding affinity to NT5DC2 cysteine residue in human 786-O cell soluble proteomic lysate at 5 uM incubated for 1 hr followed by cell lysis by IA-alkyne probe based isoTOP-ABPP analysis
T4 sequence (whole entry): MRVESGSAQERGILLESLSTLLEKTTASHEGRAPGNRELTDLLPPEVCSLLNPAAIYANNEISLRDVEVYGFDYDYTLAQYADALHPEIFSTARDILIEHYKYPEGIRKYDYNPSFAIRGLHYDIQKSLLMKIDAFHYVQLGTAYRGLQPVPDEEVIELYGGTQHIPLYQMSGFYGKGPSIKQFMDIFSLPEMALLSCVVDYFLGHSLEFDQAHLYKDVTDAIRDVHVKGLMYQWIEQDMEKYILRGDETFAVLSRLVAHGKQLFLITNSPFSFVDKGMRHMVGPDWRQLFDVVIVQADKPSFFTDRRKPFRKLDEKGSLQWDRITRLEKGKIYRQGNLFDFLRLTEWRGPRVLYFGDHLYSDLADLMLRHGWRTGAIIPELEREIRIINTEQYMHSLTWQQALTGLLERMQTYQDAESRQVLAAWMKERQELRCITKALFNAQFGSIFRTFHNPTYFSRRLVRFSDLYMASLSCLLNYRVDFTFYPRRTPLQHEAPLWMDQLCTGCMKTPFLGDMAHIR

[7] = target: T5, Sterol carrier protein 2 (Homo sapiens) (UniProt P22307); assay: Binding affinity to SCP2 cysteine residue in human 786-O cell soluble proteomic lysate at 5 uM incubated for 1 hr followed by cell lysis by IA-alkyne probe based isoTOP-ABPP analysis
T5 sequence (whole entry): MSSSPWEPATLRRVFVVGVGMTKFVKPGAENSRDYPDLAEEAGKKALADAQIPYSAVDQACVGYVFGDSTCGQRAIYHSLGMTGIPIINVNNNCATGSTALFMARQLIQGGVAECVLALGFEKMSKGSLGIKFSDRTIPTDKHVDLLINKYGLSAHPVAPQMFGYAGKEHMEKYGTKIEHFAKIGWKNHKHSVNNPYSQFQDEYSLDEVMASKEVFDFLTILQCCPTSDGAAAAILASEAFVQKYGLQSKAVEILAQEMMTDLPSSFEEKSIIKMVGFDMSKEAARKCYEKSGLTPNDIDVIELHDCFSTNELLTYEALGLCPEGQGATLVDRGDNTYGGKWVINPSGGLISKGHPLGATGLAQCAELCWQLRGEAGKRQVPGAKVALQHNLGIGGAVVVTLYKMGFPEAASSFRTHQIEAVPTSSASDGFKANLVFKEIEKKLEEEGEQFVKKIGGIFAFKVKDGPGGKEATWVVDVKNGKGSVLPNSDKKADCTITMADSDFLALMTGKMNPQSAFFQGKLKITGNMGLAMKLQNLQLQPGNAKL

Sequence of Receptor expression-enhancing protein 5 (Homo sapiens) (Q00765 whole entry, the tested form may be a part): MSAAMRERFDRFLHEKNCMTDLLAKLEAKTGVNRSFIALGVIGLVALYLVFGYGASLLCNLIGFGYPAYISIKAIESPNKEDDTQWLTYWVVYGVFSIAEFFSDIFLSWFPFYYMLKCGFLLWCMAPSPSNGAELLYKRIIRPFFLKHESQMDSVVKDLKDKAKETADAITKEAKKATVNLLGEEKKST

| Activity [1] | IC50 [2] | inhibition [3] | inhibition [4] | Activity [5] | Activity [6] | Activity [7] | Compound |
| --- | --- | --- | --- | --- | --- | --- | --- |
| Active | > 100 µM | Dose-dependent effect | Dose-dependent effect | Active |  |  | CC(C)CCN(C(=O)CCl)c1cc(C(=O)NCc2cccc([N+](=O)[O-])c2)cc(C(F)(F)F)c1 |
|  |  |  |  |  | Active | Active | O=C(Nc1cccnc1Cl)c1cc(N(CCCc2ccccc2)C(=O)CCl)cc(C(F)(F)F)c1 |

Reference: ChEMBL document CHEMBL4229400, “Covalent inhibitors of nicotinamide N-methyltransferase (NNMT) provide evidence for target engagement challenges in situ” (Bioorg Med Chem Lett, 2018)
